# Results reported in US11518760B2 (Liverpool School of Tropical Medicine, priority 2017, dated 2022).
# Tested on: C6/36 Aedes albopictus cell line infected with Wolbachia pipientis (Wolbachia strain wAlbB)
# Assay: In vitro insect cell line assay (anti-Wolbachia screen, SYTO 11 high content imaging)
# Assay type: cell-based
# Conditions: 168 h; C6/36 Aedes albopictus cells infected with Wolbachia pipientis wAlbB, 7 days incubation, SYTO 11 imaging; read-out: In vitro anti-Wolbachia activity
# Method in brief: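 SYTO 11 staining (15 min), high-content imaging and texture analysis were the read-out on day 7. Before that, C6/36 mosquito cells carrying Wolbachia strain wAlbB were incubated at 26 °C with test compound at 5 μM final, alongside DMSO-only control wells.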
row,Structure (SMILES),EC50
1,"CC(C)Nc1nc(N(C)Cc2ccccc2C(F)(F)F)c2sccc2n1 [Example 50, N^2-isopropyl-N^4-methyl-N^4-(2-(trifluoromethyl)benzyl)thieno[3,2-d]pyrimidine-2,4-diamine]",10 to 100 nM
2,"CC(C)Nc1nc(NCc2ccccc2)c2sccc2n1 [Example 12, N^4-benzyl-N^2-isopropylthieno[3,2-d]pyrimidine-2,4-diamine]",1000 to 100000 nM
3,"CC1(C)COCCN1c1nc(NCc2cccnc2C(F)(F)F)c2cccnc2n1 [Example 240, 2-(3,3-dimethylmorpholino)-N-((2-(trifluoromethyl)pyridin-3-yl)methyl)pyrido[2,3-d]pyrimidin-4-amine]",0.01 to 1 nM
4,CC(Nc1ncnc2cc(Cl)sc12)c1ccccc1C(F)(F)F (stereo not drawn) [Example 101],1000 to 100000 nM
5,"CC(C)Nc1nc(NC2(c3ccccc3Cl)CC2)c2sccc2n1 [Example 48, N^4-(1-(2-chlorophenyl)cyclopropyl)-N^2-isopropylthieno[3,2-d]pyrimidine-2,4-diamine]",100 to 1000 nM
6,"FC1CCN(c2nc(NCc3cccnc3C(F)(F)F)c3cccnc3n2)C1 (stereo not drawn) [Example 242, 2-(3-fluoropyrrolidin-1-yl)-N-((2-(trifluoromethyl)pyridin-3-yl)methyl)pyrido[2,3-a]pyrimidin-4-amine]",1 to 10 nM
7,CC(C)(O)c1nc(NCc2ccccc2C(F)(F)F)c2sccc2n1 [Example 86],1000 to 100000 nM
8,"CC(C)Nc1nc(NCc2ccc(C(F)(F)F)nc2)c2sccc2n1 [Example 119, N^2-isopropyl-N^4-((6-(trifluoromethyl)pyridin-3-yl)methyl)thieno[3,2-d]pyrimidine-2,4-diamine]",100 to 1000 nM
9,"FC(F)(F)c1ncccc1CNc1nc(N2CCCCC2C(F)(F)F)nc2ncccc12 (stereo not drawn) [Example 259, 2-(2-(trifluoromethyl)piperidin-1-yl)-N-((2-(trifluoromethyl)pyridin-3-yl)methyl)pyrido[2,3-d]pyrimidin-4-amine]",0.01 to 1 nM
10,"CC(C)Nc1nc(NCc2ccc(C#N)cc2)c2sccc2n1 [Example 116, N^4-(4-cyanobenzyl)-N^2-isopropylthieno[3,2-d]pyrimidine-2,4-diamine]",100 to 1000 nM
11,"FC(F)(F)c1ncccc1CNc1nc(N2CCCC2)nc2ncccc12 [Example 174, 2-(pyrrolidin-1-yl)-N-((2-(trifluoromethyl)pyridin-3-yl)methyl)pyrido[2,3-d]pyrimidin-4-amine]",0.01 to 1 nM
12,"FC(F)Sc1nc(NCc2cccnc2C(F)(F)F)c2cccnc2n1 [Example 191, 2-((difluoromethyl)thio)-N-((2-(trifluoromethyl)pyridin-3-yl)methyl)pyrido[2,3-d]pyrimidin-4-amine]",100 to 1000 nM
13,"CC(C)N(C)c1nc(N2CCCCC2c2ccccc2C(F)(F)F)c2cccnc2n1 (stereo not drawn) [Example 186, N-isopropyl-N-methyl-4-(2-(2-(trifluoromethyl)phenyl)piperidin-1-yl)pyrido[2,3-d]pyrimidin-2-amine]",1000 to 100000 nM
14,"CNc1nc(NCc2cccnc2C(F)(F)F)c2cccnc2n1 [Example 149, N^2-methyl-N^4-((2-(trifluoromethyl)pyridin-3-yl)methyl)pyrido[2,3-d]pyrimidine-2,4-diamine]",100 to 1000 nM
15,"CC(C)Nc1cc(NCc2cccnc2C(F)(F)F)c2cccnc2n1 [Example 165, N^2-isopropyl-N^4-((2-(trifluoromethyl)pyridin-3-yl)methyl)-1,8-naphthyridine-2,4-diamine]",10 to 100 nM
16,"O=C1CCCN1CCCNc1nc(NCc2ccccc2C(F)(F)F)c2sccc2n1 [Example 88, 1-(3-((4-((2-(trifluoromethyl)benzyl)amino)thieno[3,2-d]pyrimidin-2-yl)amino)propyl)pyrrolidin-2-one]",1000 to 100000 nM
17,"FC(F)O[C@@H]1CCN(c2nc(NCc3cccnc3C(F)(F)F)c3cccnc3n2)C1 [Example 280, (R)-2-(3-(difluoromethoxy)pyrrolidin-1-yl)-N-((2-(trifluoromethyl)pyridin-3-yl)methyl)pyrido[2,3-d]pyrimidin-4-amine]",0.01 to 1 nM
18,"CC(c1ccccc1C(F)(F)F)N(C)c1nc(C#N)nc2ccsc12 (stereo not drawn) [Example 74, 4-(methyl(1-(2-(trifluoromethyl)phenyl)ethyl)amino)thieno[3,2-d]pyrimidine-2-carbonitrile]",1000 to 100000 nM
19,"CC(C)N(C)c1nc(N2CCC2c2ccccc2C(F)(F)F)c2cccnc2n1 (stereo not drawn) [Example 184, N-isopropyl-N-methyl-4-(2-(2-(trifluoromethyl)phenyl)azetidin-1-yl)pyrido[2,3-d]pyrimidin-2-amine]",0.01 to 1 nM
20,"CC1COCCN1c1nc(N2CCC2c2ccccc2C(F)(F)F)c2cccnc2n1 (stereo not drawn) [Example 214, 3-methyl-4-(4-(2-(2-(trifluoromethyl)phenyl)azetidin-1-yl)pyrido[2,3-d]pyrimidin-2-yl)morpholine]",0.01 to 1 nM
21,"CC1COCCN1c1nc(NCc2ccccc2C(F)(F)F)c2cncnc2n1 (stereo not drawn) [Example 307, 2-(3-methylmorpholino)-N-(2-(trifluoromethyl)benzyl)pyrimido[4,5-d]pyrimidin-4-amine]",1000 to 100000 nM

row,Structure (SMILES),EC50
1,CCN(CC)c1ncnc2ccsc12 [Example 39],1000 to 100000 nM
2,"CC1COCCN1c1nc(NCc2ccccc2C(F)(F)F)c2nccnc2n1 (stereo not drawn) [Example 310, 2-(3-methylmorpholino)-N-(2-(trifluoromethyl)benzyl)pteridin-4-amine]",100 to 1000 nM
3,"FC(F)(F)c1ccccc1CNc1nc(NCCN2CCOCC2)nc2ccsc12 [Example 90, N^2-(2-morpholinoethyl)-N^4-(2-(trifluoromethyl)benzyl)thieno[3,2-d]pyrimidine-2,4-diamine]",1000 to 100000 nM
4,"CC(C)Nc1nc(NCc2ccc(C(F)(F)F)cc2)c2ncccc2n1 [Example 124, N^2-isopropyl-N^4-(4-(trifluoromethyl)benzyl)pyrido[3,2-d]pyrimidine-2,4-diamine]",1000 to 100000 nM
5,"FC(F)(F)OC1CCN(c2nc(NCc3cccnc3C(F)(F)F)c3cccnc3n2)C1 (stereo not drawn) [Example 297, 2-(3-(trifluoromethoxy)pyrrolidin-1-yl)-N-((2-(trifluoromethyl)pyridin-3-yl)methyl)pyrido[2,3-d]pyrimidin-4-amine]",< 0.01 nM
6,"CC(C)Nc1nc(NCc2ccc(S(C)(=O)=O)cc2)c2sccc2n1 [Example 118, N^2-isopropyl-N^4-(4-(methylsuifonyl)benzyl)thieno[3,2-d]pyrimidine-2,4-diamine]",1000 to 100000 nM
7,"FC(F)(F)OC1CCN(c2nc(NCc3cccnc3C(F)(F)F)c3cccnc3n2)CC1 [Example 273, 2-(4-(trifluoromethoxy)piperidin-1-yl)-N-((2-(trifluoromethyl)pyridin-3-yl)methyl)pyrido[2,3-d]pyrimidin-4-amine]",< 0.01 nM
8,"FC(F)(F)c1ncccc1CNc1nc(N2CC3CC2CO3)nc2ncccc12 (stereo not drawn) [Example 255, 2-(2-oxa-5-azabicyclo[2.2.1]heptan-5-yl)-N-((2-(trifluoromethyl)pyridin-3-yl)methyl)pyrido[2,3-d]pyrimidin-4-amine]",1 to 10 nM
9,"CC(C)Nc1nc(NCc2ccccc2S(C)(=O)=O)c2sccc2n1 [Example 117, N^2-isopropyl-N^4-(2-(methylsuifonyl)benzyl)thieno[3,2-d]pyrimidine-2,4-diamine]",100 to 1000 nM
10,"CC1CCN1c1nc(NCc2cccnc2C(F)(F)F)c2cccnc2n1 (stereo not drawn) [Example 172, 2-(2-methylazetidin-1-yl)-N-((2-(trifluoromethyl)pyridin-3-yl)methyl)pyrido[2,3-d]pyrimidin-4-amine]",0.01 to 1 nM
11,"CC(C)N(C)c1nc(NCc2cccnc2C(F)(F)F)c2ccccc2n1 [Example 176, N^2-isopropyl-N^2-methyl-N^4-((2-(trifluoromethyl)pyridin-3-yl)methyl)quinazoline-2,4-diamine]",100 to 1000 nM
12,"Oc1nc(NCc2cccnc2C(F)(F)F)c2cccnc2n1 [Example 182, 4-(((2-(trifluoromethyl)pyridin-3-yl)methyl)amino)pyrido[2,3-d]pyrimldin-2-ol]",1000 to 100000 nM
13,"C[C@@H]1CO[C@@H](C)CN1c1nc(NCc2cccnc2C(F)(F)F)c2cccnc2n1 [Example 271, 2-((2S,5R)-2,5-dimethylmorpholino)-N-((2-(trifluoromethyl)pyridin-3-yl)methyl)pyrido[2,3-d]pyrimidin-4-amine]",0.01 to 1 nM
14,"CC(C)Nc1nc(NCc2cccnc2C(F)(F)F)c2ccccc2n1 [Example 151, N^2-isopropyl-N^4-((2-(trifluoromethyl)pyridin-3-yl)methyl)quinazoline-2,4-diamine]",100 to 1000 nM
15,"CN(Cc1ccccc1)c1nc(NCCCN2CCCC2=O)c2sccc2n1 [Example 36, 1-(3-((2-(benzyl(methyl)amino)thieno[3,2-d]pyrimidin-4-yl)amino)propyl)pyrrolidin-2-one]",1000 to 100000 nM
16,"COc1ccccc1CNc1nc(NCCCN2CCCC2=O)c2sccc2n1 [Example 35, 1-(3-((2-((2-methoxybenzyl)amino)thieno[3,2-d]pyrimidin-4-yl)amino)propyl)pyrrolidin-2-one]",100 to 1000 nM
17,"Cc1nc(NCc2ccc(F)cc2C(F)(F)F)c2ccccc2n1 [Example 73, N-(4-fluoro-2-(trifluoromethyl)benzyl)-2-methylquinazolin-4-amine]",100 to 1000 nM
18,"CC1COCCN1Cc1nc(NCc2cccnc2C(F)(F)F)c2cccnc2n1 (stereo not drawn) [Example 229, 2-((3-methylmorpholino)methyl)-N-((2-(trifluoromethyl)pyridin-3-yl)methyl)pyrido[2,3-d]pyrimidin-4-amine]",1000 to 100000 nM
19,CC(C)(C)N(Cc1ccccc1C(F)(F)F)c1ncnc2ccsc12 [Example 85],100 to 1000 nM
20,"FC(F)(F)c1ncccc1CNc1nc(NC2COC2)nc2ncccc12 [Example 158, N^2-(oxetan-3-yl)-N^4-((2-(trifluoromethyl)pyridin-3-yl)methyl)pyrido[2,3-d]pyrimidine-2,4-diamine]",100 to 1000 nM
21,"N#Cc1ccccc1CNc1nc(Cl)nc2ccsc12 [Example 104, 2-(((2-chlorothieno[3,2-d]pyrimidin-4-yl)amino)methyl)benzonitrile]",100 to 1000 nM
